Reference: patent US6858741B2, “Alkyl-dihalogenated phenyl-substituted ketoenols useful as pesticides and herbicides” (Bayer Aktiengesellschaft, priority 1995, dated 2005)

Assays:
fly larvae = test: Test with fly larvae/development-inhibitory action; type: in vivo; details: active compound concentration 1000 ppm
Method: [table] To produce a suitable formulation, 3 parts by weight of active compound are mixed with 7 parts of the abovementioned solvent/emulsifier mixture, and the resulting emulsion concentrate is diluted with water to the concentration desired in each case. For each concentration, 30 to 50 larvae are transferred to horsemeat (1 cm^3) located in glass tubes and 500 μl of the test dilution are pipetted onto the meat. The glass tubes are placed into plastic beakers whose bottom is covered with sea sand and kept in a control-environment cabinet (26° C.±1.5° C., 70% relative humidity±10%). The activity is checked after 24 hours and 48 hours (larvicidal action). After the larvae have left the glass tubes (approximately 72 hours), the tubes are removed, and perforated plastic lids are placed on the beakers. After 1½ times the development period (hatching of the control flies), the hatched flies and the pupae/puparia are counted. The criterion for the action is death in the treated larvae after 48 hours (larvicidal effect) or inhibition of adults hatching from the pupae or inhibition of pupation. The criterion for the in-vitro action of a substance is the inhibition of fly development or a standstill of development prior to the adult stage. 100% larvicidal activity means that all larvae have died after 48 hours. 100% development-inhibitory activity means that no adult flies have hatched.

[1] = tested on: resistant Boophilus microplus, SP resistant Parkhurst strain; test: Test with resistant Boophilus microplus / SP resistant Parkhurst strain; type: in vivo; details: active compound concentration 20 μg/animal; injected into the abdomen
Method: [table] 20 mg of active compound are dissolved in 1 ml of dimethyl sulphoxide, and lesser concentrations are prepared by dilution with the same solvent. The test is carried out in 5 applications. 1 μl of the solutions is injected into the abdomen, and the animals are transferred into dishes and kept in a controlled-environment cabinet. The activity is determined via the inhibition of oviposition. 100% means that no tick has produced eggs.

[2] = tested on: caterpillars of the fall armyworm (Spodoptera frugiperda); test: Spodoptera test; type: in vivo; details: after 7 days; active compound concentration 0.1%; dipped cabbage leaves
Method: (§1) [table] To produce a suitable preparation of active compound, 1 part by weight of active compound is mixed with the stated amount of solvent and the stated amount of emulsifier, and the concentrate is diluted with water to the desired concentration. Cabbage leaves (Brassica oleracea) are treated by being dipped into the preparation of active compound of the desired concentration and are infested with caterpillars of the fall armyworm (Spodoptera frugiperda) while the leaves are still moist. After the specified period of time, the destruction in % is determined. 100% means that all the caterpillars have been killed; 0% means that none of the caterpillars have been killed.

[3] = tested on: caterpillars of the diamond-back moth (Plutella maculipennis); test: Plutella test; type: in vivo; details: after 7 days; active compound concentration 0.1%; dipped cabbage leaves
Method: as §1, with “diamond-back moth (Plutella maculipennis)” for “fall armyworm (Spodoptera frugiperda)”

[4] = tested on: green peach aphid (Myzus persicae); test: Myzus test; type: in vivo; details: after 6 days; active compound concentration 0.1%; dipped cabbage leaves
Method: as §1, with “oleracea) which are severely infested with the green peach aphid (Myzus persicae)” for “oleracea)”, “concentration.” for “concentration and are infested with caterpillars of the fall armyworm (Spodoptera frugiperda) while the leaves are still moist.”, “aphids” for “caterpillars”

[5] = tested on: green rice leafhopper (Nephotettix cincticeps); test: Nephotettix test; type: in vivo; details: after 6 days; active compound concentration 0.1%; dipped rice seedlings
Method: as §1, with “Rice seedlings (Oryza sativa)” for “Cabbage leaves (Brassica oleracea)”, “with” for “with caterpillars of”, “green rice leafhopper (Nephotettix cincticeps)” for “fall armyworm (Spodoptera frugiperda)”, “seedlings” for “leaves”, “leafhoppers” for “caterpillars”

[6] = tested on: mustard beetle larvae (Phaedon cochleariae); test: Phaedon larvae test; type: in vivo; details: after 7 days; active compound concentration 0.1%; dipped cabbage leaves
Method: [table] To produce a suitable preparation of active compound, 1 part by weight of active compound is mixed with the stated amount of solvent and the stated amount of emulsifier, and the concentrate is diluted with water to the desired concentration. Cabbage leaves (Brassica oleracea) are treated by being dipped into the preparation of the active compound of the desired concentration and are infested with mustard beetle larvae (Phaedon cochleariae) while the leaves are still moist. After the specified period of time, the destruction in % is determined. 100% means that all the beetle larvae have been killed; 0% means that none of the beetle larvae have been killed.

test plants [7] = test: Pre-emergence test/greenhouse; type: in vivo; details: greenhouse, 250 g/ha, rated after three weeks vs untreated control, 0%=no action, 100%=total destruction
Method: [table] To produce a suitable preparation of active compound, 1 part by weight of active compound is mixed with the stated amount of solvent, the stated amount of emulsifier is added and the concentrate is diluted with water to the desired concentration. Seeds of the test plants are sown in normal soil and, after 24 hours, watered with the preparation of the active compound. It is expedient to keep constant the amount of water per unit area The concentration of the active compound in the preparation is of no importance, only the amount of active compound applied per unit area being decisive. After three weeks, the degree of damage to the plants is rated in % damage in comparison to the development of the untreated control. The figures denote: • 0%=no action (like untreated control) 100%=total destruction [table]

[8] = tested on: greenhouse red spider mite or two-spotted spider-mite (Tetranychus urticae); test: Tetranychus test (OP-resistant/immersion treatment); type: in vivo; details: after 13 days; active compound concentration 0.1%; immersion treatment of bean plants
Method: (§2) [table] To produce a suitable preparation of active compound, 1 part by weight of active compound is mixed with the stated amount of solvent and the stated amount of emulsifier, and the concentrate is diluted with water to the desired concentrations. Bean plants (Phaseolus vulgaris) which are severely infested with all development stages of the greenhouse red spider mite or two-spotted spider-mite (Tetranychus urticae) are immersed in a preparation of active compound of the desired concentration. After the specified period of time, the destruction in % is determined. 100% means that all the spider mites have been killed; 0% means that none of the spider mites have been killed.

[9] = tested on: greenhouse red spider mite or two-spotted spider-mite (Tetranychus urticae); test: Tetranychus test (OP-resistant/spray treatment); type: in vivo; details: after 7 days; active compound concentration 0.004%; spray treatment of bean plants
Method: as §2, with “sprayed with” for “immersed in”

test plants [10] = test: Post-emergence test; type: in vivo; details: post-emergence (footnote *); 250 g/ha; rated after three weeks vs untreated control; 0%=no action, 100%=total destruction

Cc1cc(Cl)cc(Cl)c1C1=C(OC(=O)C(C)C)C2(CCCC(C)C2)NC1=O (single isomer, unassigned) [Example I-1-b-3]
activity (larvicidal / development-inhibitory) (fly larvae): 100%
activity (inhibition of oviposition) [1]: 100%

Cc1cc(Cl)cc(Cl)c1C1=C(OC(=O)c2ccccc2)C2(CCCC(C)C2)NC1=O (single isomer, unassigned) [Example I-1-b-5]
destruction [2]: 100%

Cc1cc(Cl)cc(Cl)c1C1=C(O)C(C)(C(C)C)NC1=O (stereo not shown) [Example I-1-a-1]
destruction [3]: 100%
destruction [4]: 100%
destruction [5]: 100%

Cc1cc(Cl)cc(Cl)c1C1=C(O)C2(CCOCC2)NC1=O [Example I-1-a-5]
activity (larvicidal / development-inhibitory) (fly larvae): 100%
activity (inhibition of oviposition) [1]: 100%

CC(=O)OC1=C(c2c(C)cc(Cl)cc2Cl)C(=O)NC12CCCCC2 [Example I-1-b-7]
destruction [6]: 100%
degree of damage, Alopecurus myosuroides (test plants [7]): 95%
degree of damage, Avena fatua (test plants [7]): 80%
degree of damage, Beta vulgaris (test plants [7]): 30%
degree of damage, Setaria viridis (test plants [7]): 100%
degree of damage, Sinapis arvensis (test plants [7]): 100%
destruction [4]: 100%
activity (destruction) [8]: 100%

Cc1cc(Cl)cc(Cl)c1C1=C(O)C2(CCCCC2)OC1=O [Example I-2-a-1, 3-(2,4-dichloro-6-methyl-phenyl)-5-spirocyclohexyltetronic acid]
melting point: > 240 °C

Cc1cc(Cl)c(C2=C(O)C3(CCCCC3)OC2=O)c(Cl)c1 [Example I-2-a-5]
destruction [4]: 100%

Cc1cc(Cl)c(C2=C(O)C3(CCC(C)CC3)OC2=O)c(Cl)c1 (stereo not shown) [Example I-2-a-6]
destruction [6]: 100%
activity (larvicidal / development-inhibitory) (fly larvae): 100%
destruction [4]: 100%
activity (inhibition of oviposition) [1]: 100%

Cc1cc(Cl)cc(Cl)c1C1=C(OC(=O)C(C)(C)C)C2(CCCCC2)OC1=O [Example I-2-b-1, 4-pivaloyl-oxy-3-(2,4-dichloro-6-methyl-phenyl)-5-spiro-cyclohexyl-tetronic acid]
melting point: 137 °C
activity (destruction) [9]: 100%

Cc1cc(Cl)cc(Cl)c1-c1c(O)c(C)c(-c2ccccn2)oc1=O [Example I-5-a-1]
degree of damage, Alopecurus myosuroides (test plants [10]): 80%
degree of damage, Beta vulgaris (test plants [10]): 0%
degree of damage, Alopecurus myosuroides (test plants [7]): 80%
degree of damage, Beta vulgaris (test plants [7]): 0%
